Experimental data from PMC3914206.

Experiments:
panel of 442 kinases [1] = target: T1, panel of 442 kinases (Homo sapiens, UniProt Q8NEV4); assay type: binding; details: Compound Concentration 10 µM
T1 construct: purchased KINOMEscan
From the text: (§1) We assessed the selectivity of members of this scaffold using the KINOMEscan methodology across a near comprehensive panel of 442 kinases [[18,27]].

panel of 442 kinases [2] = target: T2, panel of 442 kinases (Homo sapiens, UniProt P42679); assay type: binding; details: Compound Concentration 10 µM
T2 construct: purchased KINOMEscan
T2 sequence (P42679 1-507): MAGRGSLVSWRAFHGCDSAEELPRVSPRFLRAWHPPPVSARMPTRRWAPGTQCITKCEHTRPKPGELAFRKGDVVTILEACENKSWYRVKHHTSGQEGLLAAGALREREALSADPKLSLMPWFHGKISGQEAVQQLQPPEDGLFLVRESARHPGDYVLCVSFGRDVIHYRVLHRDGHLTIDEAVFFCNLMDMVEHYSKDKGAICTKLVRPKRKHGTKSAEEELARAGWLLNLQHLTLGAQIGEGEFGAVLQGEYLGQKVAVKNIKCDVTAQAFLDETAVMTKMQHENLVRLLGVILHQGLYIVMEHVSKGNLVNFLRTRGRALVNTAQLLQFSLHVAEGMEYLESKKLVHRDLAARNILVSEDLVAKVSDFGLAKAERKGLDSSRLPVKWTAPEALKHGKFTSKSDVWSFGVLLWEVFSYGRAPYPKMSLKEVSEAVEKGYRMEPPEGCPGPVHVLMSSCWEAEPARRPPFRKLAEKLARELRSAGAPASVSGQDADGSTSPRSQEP
From the text: as §1

T1 sequence (Q8NEV4 whole entry): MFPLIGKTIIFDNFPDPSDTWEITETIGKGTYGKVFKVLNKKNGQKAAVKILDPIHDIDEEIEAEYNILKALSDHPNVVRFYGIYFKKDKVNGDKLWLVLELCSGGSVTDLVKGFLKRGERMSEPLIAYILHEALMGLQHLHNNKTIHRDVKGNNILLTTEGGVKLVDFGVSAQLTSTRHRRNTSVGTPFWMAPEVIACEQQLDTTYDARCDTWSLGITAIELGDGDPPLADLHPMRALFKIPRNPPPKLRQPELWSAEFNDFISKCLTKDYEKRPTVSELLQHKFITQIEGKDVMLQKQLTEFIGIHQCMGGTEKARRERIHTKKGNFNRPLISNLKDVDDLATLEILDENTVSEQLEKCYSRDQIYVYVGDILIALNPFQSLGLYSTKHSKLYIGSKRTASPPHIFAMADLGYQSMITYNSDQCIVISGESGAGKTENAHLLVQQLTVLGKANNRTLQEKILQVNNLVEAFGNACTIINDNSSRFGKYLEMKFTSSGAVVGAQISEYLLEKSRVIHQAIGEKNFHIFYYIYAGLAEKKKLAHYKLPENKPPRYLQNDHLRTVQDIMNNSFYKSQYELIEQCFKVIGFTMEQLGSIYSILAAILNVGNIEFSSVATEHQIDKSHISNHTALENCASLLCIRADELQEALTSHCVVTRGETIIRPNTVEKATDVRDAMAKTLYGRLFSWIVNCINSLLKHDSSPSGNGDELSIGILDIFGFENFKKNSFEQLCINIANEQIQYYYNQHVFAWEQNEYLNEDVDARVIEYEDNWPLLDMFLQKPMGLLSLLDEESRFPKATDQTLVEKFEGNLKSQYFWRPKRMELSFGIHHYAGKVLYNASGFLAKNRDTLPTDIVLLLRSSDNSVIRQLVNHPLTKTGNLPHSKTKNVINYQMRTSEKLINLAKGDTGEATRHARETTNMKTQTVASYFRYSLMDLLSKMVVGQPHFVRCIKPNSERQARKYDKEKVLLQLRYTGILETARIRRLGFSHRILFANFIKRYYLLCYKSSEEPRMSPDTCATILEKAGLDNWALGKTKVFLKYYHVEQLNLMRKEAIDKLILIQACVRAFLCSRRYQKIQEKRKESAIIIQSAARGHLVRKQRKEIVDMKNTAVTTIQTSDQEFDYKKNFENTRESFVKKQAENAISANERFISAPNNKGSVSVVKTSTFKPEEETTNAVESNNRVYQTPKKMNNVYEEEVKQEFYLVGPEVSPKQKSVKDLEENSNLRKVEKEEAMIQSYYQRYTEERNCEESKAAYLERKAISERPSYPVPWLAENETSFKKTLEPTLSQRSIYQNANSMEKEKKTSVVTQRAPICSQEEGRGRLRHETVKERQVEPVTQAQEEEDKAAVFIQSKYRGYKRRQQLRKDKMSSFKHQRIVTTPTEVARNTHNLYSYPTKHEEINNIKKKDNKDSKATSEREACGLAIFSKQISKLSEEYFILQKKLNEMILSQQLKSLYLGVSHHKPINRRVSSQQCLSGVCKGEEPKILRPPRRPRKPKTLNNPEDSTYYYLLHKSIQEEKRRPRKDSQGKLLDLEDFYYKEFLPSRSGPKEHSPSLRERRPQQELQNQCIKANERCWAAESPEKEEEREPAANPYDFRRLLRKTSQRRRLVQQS

Row | Structure (SMILES) | KINOMEscan: MYO3A (panel of 442 kinases [1]) | KINOMEscan: CTK (panel of 442 kinases [2])
1 | CCOc1cc(C(=O)N2CCC(N3CCN(C)CC3)CC2)ccc1Nc1ncc2c(n1)N(C1CCCC1)c1ccccc1C(=O)N2C [Compound 26] | 100 | 89
2 | COc1cc(C(=O)N2CCC(N3CCN(C)CC3)CC2)ccc1Nc1ncc2c(n1)N(C1CCCC1)c1ccccc1C(=O)N2C [Compound 25, 11-cyclopentyl-2-((2-methoxy-4-(4-(4-methylpiperazin-1-yl)piperidine-1-carbonyl)phenyl)amino)-5-methyl-5H-benzo[e]pyrimido[5,4-b][1,4]diazepin-6(11H)-one] | 86 | 100
3 | COc1cc(C(=O)N2CCC(N3CCN(C)CC3)CC2)ccc1Nc1ncc2c(n1)N(C)c1ccccc1C(=O)N2C [15 (LRRK2-IN-1)] | 94 | 100
